# Measured values from PubChem BioAssay (NCI).
# Where “and” joins values, the source holds several entries; their conditions need not be identical. Equal entries are not always repeated.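 A five-concentration, 48-hour dose response in 96-well plates underlies each endpoint, interpolated linearly between surrounding concentrations. GI50: concentration for 50% inhibition of growth. TGI denotes the concentration required for complete inhibition of growth.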
# Columns and labels:
# Test in all cases: inhibition of tumour cell growth, NCI panel, 48 h
# U251 CNS = test system: U251 CNS
# MCF7 breast = test system: MCF7 breast
# 786-0 renal = test system: 786-0 renal
# SN12C renal = test system: SN12C renal
# HL-60(TB) leukemia = test system: HL-60(TB) leukemia
# ACHN renal = test system: ACHN renal
# T-47D breast = test system: T-47D breast
# K-562 leukemia = test system: K-562 leukemia
# A549 NSCLC = test system: A549 NSCLC
# MOLT-4 leukemia = test system: MOLT-4 leukemia
Compound,GI50 (U251 CNS),TGI (U251 CNS),GI50 (MCF7 breast),TGI (MCF7 breast),GI50 (786-0 renal),TGI (786-0 renal),GI50 (SN12C renal),TGI (SN12C renal),GI50 (HL-60(TB) leukemia),TGI (HL-60(TB) leukemia),GI50 (ACHN renal),TGI (ACHN renal),GI50 (T-47D breast),TGI (T-47D breast),GI50 (K-562 leukemia),TGI (K-562 leukemia) [µM],GI50 (A549 NSCLC),TGI (A549 NSCLC),GI50 (MOLT-4 leukemia),TGI (MOLT-4 leukemia) [µM]
CNC(=O)c1cc(Oc2ccc(NC(=O)Nc3ccc(Cl)c(C(F)(F)F)c3)cc2)ccn1,2.84 µM and 2.05 µM and 2.14 µM,> 10 µM and 5.82 µM and 5.94 µM,2.62 µM and 2.41 µM and 2.82 µM,9.82 µM and 7.38 µM and 10 µM,4.04 µM and 3 µM and 3.42 µM,> 10 µM and 9.4 µM and 13.2 µM,2.84 µM and 2.98 µM and 2.31 µM,> 10 µM and 10.6 µM and 7.15 µM,0.703 µM and 1.53 µM,3.8 µM and 14.1 µM,3.22 µM and 3.45 µM and 2.64 µM,> 10 µM and 12 µM and 12.1 µM,1.82 µM and 2.31 µM and 1.87 µM,> 10 µM and 7.43 µM and 7.85 µM,1.7 µM and 2.5 µM and 2.53 µM,> 100,3.03 µM and 2.57 µM and 2.92 µM,> 10 µM and 11.5 µM and 13.6 µM,2.38 µM and 3.15 µM and 2.87 µM,–
CN1CCN(CCCn2c3c(sc4ncccc43)c(=O)n3nnc(-c4ccccc4)c23)CC1,1.86 µM,3.3 µM,1.72 µM,3.16 µM,5.81 µM,10.7 µM,14.5 µM,28.8 µM,1.48 µM,3.47 µM,1.54 µM,3.04 µM,20.2 µM,39.4 µM,0.593 µM,1.56,1.54 µM,2.92 µM,0.889 µM,2.86
COC1C[C@H](O[C@@H]2C[C@H](O[C@@H]3C[C@H](O[C@@H]4C(=O)c5c(cc6cc(O[C@H]7C[C@@H](O[C@H]8C[C@@H](O)[C@H](O)C(C)O8)[C@H](O)C(C)O7)c(C)c(O)c6c5O)C[C@H]4C(OC)C(=O)[C@@H](O)[C@@H](C)O)OC(C)[C@H]3O)OC(C)[C@@H]2O)OC(C)[C@@H]1O (some centres undefined),0.0631 µM,29.6 µM,0.0493 µM,> 32.5 µM,0.116 µM,> 32.5 µM,0.113 µM,> 32.5 µM,0.362 µM,> 32.5 µM,0.252 µM,31.1 µM,0.0701 µM,7 µM,0.119 µM,> 32.5,0.185 µM,> 32.5 µM,0.111 µM,> 32.5
Nc1cc2c3ccccc3ccc2c2ccccc12,21.4 µM,> 100 µM,20.2 µM,> 100 µM,> 100 µM,> 100 µM,> 100 µM,> 100 µM,> 68.6 µM,> 100 µM,> 100 µM,> 100 µM,> 38.1 µM,> 100 µM,19.3 µM,> 100,23.9 µM,> 100 µM,> 100 µM,> 100
CC1(/C=C/c2ccc(-c3ccccc3)cc2)CCn2cnc3ncnc(c32)N1O (centres undefined),0.418 µM,22 µM,0.342 µM,> 69.4 µM,0.259 µM,4.49 µM,0.508 µM,40.7 µM,0.318 µM,1.81 µM,0.281 µM,14.2 µM,0.462 µM,54.3 µM,0.359 µM,> 66.7,0.466 µM,23.5 µM,0.347 µM,27.9
C#Cc1cccc(NC(=O)C2CCCCN2C(=O)CCl)c1 (centres undefined),15.1 µM,35.8 µM,15.8 µM,> 82.5 µM,16.2 µM,32 µM,12.2 µM,28.4 µM,16.8 µM,51.7 µM,13.1 µM,24.5 µM,16 µM,> 82.5 µM,15.3 µM,> 82.5,> 82.5 µM,> 82.5 µM,12 µM,52.9
